Patent US9200008B2 (ASKA PHARMACEUTICAL CO., LTD., priority 2010, dated 2015)

What follows are compounds tested on Human prostate cancer cell lines (PC-3 cells) (assay: Measurement of cell death-inducing activity (Test Example 1)). Conditions: PC-3, 48 h, 48 hours after addition, tested at 10, 1, 0.1, 0.025 and 0.00625 μmol/L, qualitative evaluation of 10 fields, read-out: Concentration showing the cell death-inducing activity (cell death-inducing rate not less than 40%).
Type: cell-based
Procedure: The cell death-inducing activity of the compound represented by the formula (1) or the salt thereof was measured as follows.
Human prostate cancer cell lines (PC-3 cells) were seeded to 6-well plates at 1×10^5 cells/2 mL/well, and cultured in the presence of 5% CO2 at 37° C. for 48 hours. Thereafter, each compound was added thereto so as to provide 10, 1, 0.1, 0.025 and 0.00625 μmol/L. As a control, DMSO was added. After the addition, the cells were continuously cultured for 48 hours. […] When the cell death-inducing rate was not less than 40%, the compound was judged to have the cell death-inducing activity.
COc1ccc(/C=N/NC(=O)c2sc(-c3ccccc3C)nc2C)cc1O [Example 23-12] gave a minimal effective concentration of 0.1 µM. In the case of Cc1ccc(/C=N/NC(=O)c2sc(-c3ccc(Cl)cc3)nc2C)cc1O [Example 23-35], the minimal effective concentration is reported as 10 µM. COc1cc(Cl)ccc1-c1nc(C)c(COC(=O)Nc2ccc3nn(C)cc3c2)s1 [Example 13-46] gave a minimal effective concentration of 10 µM. Cc1ccncc1-c1nc(C)c(C(=O)N/N=C/c2cc(C)c(O)c(C)c2)s1 [Example 23-136] was tested, and the minimal effective concentration was 1 µM. CCn1cnc2cc(COC(=O)Nc3cc(-c4ccc(Cl)cc4Cl)nn3C)ccc21 [Example 9-209] gave a minimal effective concentration of 0.025 µM. Cc1nc(-c2ccccc2C(F)(F)F)sc1C(=O)N/N=C/c1ccc(OC(F)F)c(O)c1 [Example 23-118] gave a minimal effective concentration of 1 µM. In the case of Cc1ccc(-c2nc(C)c(COC(=O)Nc3ccc4sc(C)nc4c3)s2)c(C)c1 [Example 42-1, (2-Methylbenzothiazol-5-yl)carbamic acid 2-(2,4-dimethylphenyl)-4-methylthiazol-5-ylmethyl ester], the minimal effective concentration is reported as 1 µM. CCn1cnc2cc(COC(=O)Nc3sc(-c4ccc(C)cc4OC)nc3C)ccc21 [Example 9-60] gave a minimal effective concentration of 0.00625 µM. For COc1cc(C)ccc1-c1cc(NC(=O)OCc2ccc3c(c2)nc2n3CCOC2)sn1 [Example 45-1], the minimal effective concentration was 10 µM. CCn1nc(-c2ccc(F)cc2OC)cc1COC(=O)Nc1ccc2c(c1)nc1n2CCC1 [Example 13-107] gave a minimal effective concentration of 0.025 µM. Work on CCn1ncc2cc(/C=N/NC(=O)c3cc(-c4ccccc4OC)ns3)ccc21 [Example 49-7, 3-(2-Methoxyphenyl)isothiazole-5-carboxylic acid[1-(1-ethyl-1H-indazol-5-yl)methylidene]hydrazide] yielded a minimal effective concentration of 1 µM. COc1ccccc1-c1nc(C)c(C(=O)N/N=C/c2ccc(N3CCOCC3)cc2)s1 [Example 23-89] showed a minimal effective concentration of 1 µM. Compound COc1cc(Cl)ccc1-c1nc(C)c(COC(=O)Nc2ccc3c(c2)ncn3C)s1 [Example 13-5] has a minimal effective concentration of 0.1 µM. Compound CCc1nc(-c2ccc(F)cc2C)sc1COC(=O)Nc1ccc2c(c1)ncn2C [Example 13-149] has a minimal effective concentration of 0.025 µM. CCc1nc(-c2ccc(Cl)cc2C)sc1NC(=O)OCc1ccc2c(c1)nc1n2CCOC1 [Example 9-377] was tested, and the minimal effective concentration was 0.025 µM. CCn1cnc2cc(NC(=O)OCc3cc(-c4ccccc4OC)nn3C)ccc21 [Example 13-78] gave a minimal effective concentration of 0.1 µM. Compound Cc1ccc(-c2nc(C)c(NC(=O)OCc3ccc4c(c3)nc3n4CCC3)s2)c(C)c1 [Example 9-108] has a minimal effective concentration of 0.025 µM. Cc1cc(/C=N/NC(=O)c2oc(-c3ccc(Cl)cc3)nc2C)cc(C)c1O [Example 26-1, 2-(4-Chlorophenyl)-4-methyloxazole-5-carboxylic acid[N′-(4-hydroxy-3,5-dimethylphenyl)methylidene]hydrazide] gave a minimal effective concentration of 10 µM. COc1ccc(/C=N/NC(=O)c2cnc(-c3ccccc3C)[nH]2)cc1O [Example 25-3, 2-(2-Methylphenyl)-3H-imidazole-4-carboxylic acid[1-(3-hydroxy-4-methoxyphenyl)methylidene]hydrazide] gave a minimal effective concentration of 10 µM. COc1cc(Cl)ccc1-c1cc(NC(=O)OCc2ccc3c(cnn3C)c2)n(C)n1 [Example 9-280] showed a minimal effective concentration of 0.00625 µM. COc1ccccc1-c1nc(C)c(NC(=O)OCc2ccc3c(c2)nnn3C)s1 [Example 9-13] gave a minimal effective concentration of 0.025 µM. Work on Cc1cc(/C=N/NC(=O)c2sc(C3CCCCC3)nc2C)cc(C)c1O [Example 23-129] yielded a minimal effective concentration of 10 µM. Work on Cc1ccccc1-c1cc(NC(=O)OCc2ccc3c(c2)ncn3C)n(C)n1 [Example 9-205] yielded a minimal effective concentration of 1 µM. CCc1ccccc1-c1nc(C)c(NC(=O)OCc2ccc3c(c2)ncn3CC)s1 [Example 9-56] gave a minimal effective concentration of 0.025 µM. Compound CCn1nc(-c2ccc(C)cc2OC)cc1COC(=O)Nc1ccc2c(cnn2C)c1 [Example 13-130] has a minimal effective concentration of 1 µM. CCc1nc(-c2ccc(Cl)cc2OC)sc1NC(=O)OCc1ccc2c(c1)nc(C)n2C [Example 9-373] gave a minimal effective concentration of 0.025 µM. Cc1nc(-c2ccc(F)cc2Cl)sc1NC(=O)OCc1ccc2c(c1)nnn2C [Example 9-18] showed a minimal effective concentration of 0.1 µM. Cc1ccccc1-c1nc(C)c(NC(=O)OCc2ccc3c(c2)ncn3C)s1 [Example 9-33] gave a minimal effective concentration of 0.025 µM. CCn1cnc2cc(COC(=O)Nc3sc(-c4ccccc4C)nc3C)ccc21 [Example 9-53] showed a minimal effective concentration of 0.1 µM. Work on CCn1cc2cc(NC(=O)OCc3sc(-c4ccc(Cl)cc4C)nc3C)ccc2n1 [Example 13-55] yielded a minimal effective concentration of 0.025 µM. Compound CCc1nc(-c2ccc(Cl)cc2)sc1C(=O)N/N=C/c1ccc(O)c(C)c1 [Example 23-108] has a minimal effective concentration of 10 µM. Work on COc1cccc(/C=N/NC(=O)c2sc(-c3ccc(Cl)cc3)nc2C)c1O [Example 23-60] yielded a minimal effective concentration of 10 µM. Work on COc1cc(/C=N/NC(=O)c2sc(-c3ccccc3Cl)nc2C)cc(O)c1OC [Example 23-5] yielded a minimal effective concentration of 10 µM. Work on CCn1ncc2cc(COC(=O)Nc3sc(-c4ccc(OC)cc4OC)nc3C)ccc21 [Example 9-138] yielded a minimal effective concentration of 0.025 µM. With CCCc1nc(-c2ccc(Cl)cc2OC)sc1NC(=O)OCc1ccc2c(c1)ncn2C [Example 9-183] the minimal effective concentration was 1 µM. In the case of CCn1cc2ccc(COC(=O)Nc3cc(-c4ccc(Cl)cc4OC)nn3C)cc2n1 [Example 9-301], the minimal effective concentration is reported as 0.025 µM. COc1cc(F)ccc1-c1nc(C)c(NC(=O)OCc2ccc3c(cnn3C)c2)s1 [Example 9-127] was tested, and the minimal effective concentration was 0.1 µM. COc1cc(Cl)ccc1-c1nc(C)c(NC(=O)OCc2cccc(N(C)C)c2)s1 [Example 9-11] was tested, and the minimal effective concentration was 10 µM. COc1ccc(CN(C)NC(=O)c2sc(-c3ccc(Cl)cc3C)nc2C)cc1 [Example 16-6] gave a minimal effective concentration of 0.1 µM. In the case of COc1ccccc1-c1ncc(COC(=O)Nc2ccc3c(c2)ncn3C)s1 [Example 13-66], the minimal effective concentration is reported as 10 µM. In the case of CCn1nc(-c2ccc(Cl)cc2OC)cc1COC(=O)Nc1ccc2c(cnn2C)c1 [Example 13-128], the minimal effective concentration is reported as 1 µM. With COc1cc(Cl)ccc1-c1nc(C)c(NC(=O)OCc2ccc3nc(C)c(C)nc3c2)s1 [Example 9-200] the minimal effective concentration was 1 µM. COc1ccccc1-c1nc(C)c(C(=O)N/N=C/c2ccc(SC)cc2)s1 [Example 23-70] gave a minimal effective concentration of 0.1 µM. In the case of COc1ccccc1-c1cc(NC(=O)OCc2ccc3c(c2)nc2n3CCCC2)n(C)n1 [Example 9-263], the minimal effective concentration is reported as 1 µM. In the case of CCn1cc2cc(COC(=O)Nc3sc(-c4ccc(F)cc4OC)nc3C)ccc2n1 [Example 9-153], the minimal effective concentration is reported as 0.025 µM. Cc1nc(-c2ccc(Cl)cc2)sc1C(=O)N/N=C/c1ccc2occc2c1 [Example 23-161] showed a minimal effective concentration of 1 µM. With COc1cc(F)ccc1-c1cc(COC(=O)Nc2ccc3c(c2)ncn3C)n(C)n1 [Example 13-80] the minimal effective concentration was 0.00625 µM. In the case of Cc1nc(-c2cccc3c2OCC3)sc1NC(=O)OCc1ccc2c(c1)nnn2C [Example 9-21], the minimal effective concentration is reported as 10 µM. COc1ccccc1-c1ncc(NC(=O)OCc2ccc3c(c2)ncn3C)s1 [Example 9-178] was tested, and the minimal effective concentration was 10 µM. For Cc1cc(/C=N/NC(=O)c2cnc(-c3ccccc3Cl)s2)cc(C)c1O [Example 23-143], the minimal effective concentration was 1 µM. With COc1ccc(CN(C)NC(=O)c2sc(-c3ccc(Cl)cc3OC)nc2C)cc1F [Example 16-20] the minimal effective concentration was 0.1 µM. In the case of CCn1cc2cc(COC(=O)Nc3sc(-c4ccc(C)cc4C)nc3C)ccc2n1 [Example 9-157], the minimal effective concentration is reported as 0.1 µM. For COc1ccc(/C=N/NC(=O)c2sc(-c3cnccc3C)nc2C)cc1O [Example 23-135], the minimal effective concentration was 1 µM. For Cc1ccc(-c2cc(NC(=O)OCc3ccc4nn(C)cc4c3)n(C)n2)c(C)c1 [Example 9-295], the minimal effective concentration was 0.1 µM. CCn1ncc2cc(COC(=O)Nc3sc(-c4ccc(F)cc4OC)nc3C)ccc21 [Example 9-135] gave a minimal effective concentration of 0.025 µM. Compound COc1ccc(/C=N/NC(=O)c2sc(-c3ccccc3F)nc2C)cc1O [Example 23-71] has a minimal effective concentration of 1 µM. COc1ccc(CN(C)NC(=O)c2sc(-c3ccc(Cl)cc3OC)nc2C)cc1C [Example 16-23] showed a minimal effective concentration of 1 µM. Work on C/C(=N\N=C\c1cc(C)c(O)c(C)c1)c1sc(-c2ccc(Cl)cc2)nc1C [Example 30-1, 4-{[1-[2-(4-Chlorophenyl)-4-methylthiazol-5-yl]ethylidene]hydrazonomethyl}-2,6-dimethyl-phenol] yielded a minimal effective concentration of 10 µM. CCn1nc(-c2ccc(Cl)cc2OC)cc1COC(=O)Nc1ccc2c(c1)nc1n2CCCC1 [Example 13-119] gave a minimal effective concentration of 0.025 µM. In the case of Cc1ccc(-c2nc(C)c(NC(=O)OCc3ccc4nn(C)cc4c3)s2)c(C)c1 [Example 9-147], the minimal effective concentration is reported as 0.025 µM. COc1ccc(/C=N/NC(=O)c2sc(-c3ccncc3)nc2C)cc1O [Example 23-40] was tested, and the minimal effective concentration was 10 µM. Cc1nc(-c2ccccc2F)sc1NC(=O)OCc1ccc2c(c1)ncn2C [Example 9-43] gave a minimal effective concentration of 1 µM. Compound CCc1nc(-c2ccc(Cl)cc2OC)sc1NC(=O)OCc1ccc2c(c1)ncn2C [Example 9-181] has a minimal effective concentration of 0.00625 µM. Work on COc1cc(F)ccc1-c1cc(COC(=O)Nc2ccc3c(c2)ncn3C)nn1C [Example 13-135] yielded a minimal effective concentration of 0.1 µM. Compound Cc1cc(/C=N/NC(=O)c2cc(-c3ccccn3)ns2)cc(C)c1O [Example 27-12] has a minimal effective concentration of 1 µM. For CCn1cnc2cc(NC(=O)OCc3sc(-c4ccco4)nc3C)ccc21 [Example 13-57], the minimal effective concentration was 1 µM. With COc1cc(Cl)ccc1-c1cc(NC(=O)OCc2ccc3cnn(C)c3c2)n(C)n1 [Example 9-297] the minimal effective concentration was 10 µM.
